Experimental data: US8921108B2, “Differentiated human liver cell cultures and their use in bioartificial liver systems” (Academisch Ziekenhuis Bij de Universiteit van Amsterdam, priority 2009, dated 2014)
“And” between values parts separate entries of the source, which are not always exact repeats. Equal entries are not always repeated.

Columns and labels:
[1] = system: HepaRG cells; experiment: Urea production of HepaRG monolayer cultures; format: cell-based, human
Method: For testing, the cells are seeded in 6-well and 24-well culture plates (Corning) in HepaRG media with different FBS batches or other differences in medium composition. After a 2 weeks proliferation phase, 2% of DMSO will be added to half of the cultures. After another 2 weeks of culturing, the confluence and morphology of the cultures will be assessed microscopically. Furthermore the +DMSO and −DMSO cell cultures in the 24-well plates will be tested for biochemical activity, i.e. urea production, ammonia elimination and protein content. […] Medium samples are taken after 1 hr from the culture wells, as a reference, and after 24 hours. At the end of the test period the cells are washed three times using PBS and stored at −20° C. for protein determination. From the changes in concentration at t=1 hr and 24 hr of urea and ammonia an activity per hour and per mg protein/well is calculated.
Urea: Urea concentrations of test medium samples are determined using the blood urea nitrogen test of Sigma Chemical Co according to the instructions of the manufacturer.
(§1) The HepaRG cells are cultured as indicated above in 24 well in presence or absence of 1 mM CG during the last 5 days. Next the cells are tested as indicated above in presence or absence of CG during 24 hours. To determine the conversion of ammonia into urea, the ^15N urea enrichment (single and double labeled) is measured in the test samples using mass-spectrometry. Similarly, HepG2 and cBAL111 cells were tested for their response to CG.

[2] = system: HepaRG cells; experiment: AST and LDH leakage of HepaRG monolayer cultures; format: cell-based, human; conditions: HepaRG monolayer +DMSO
Method: (§2) For testing, the cells are seeded in 6-well and 24-well culture plates (Corning) in HepaRG media with different FBS batches or other differences in medium composition. After a 2 weeks proliferation phase, 2% of DMSO will be added to half of the cultures. After another 2 weeks of culturing, the confluence and morphology of the cultures will be assessed microscopically. Furthermore the +DMSO and −DMSO cell cultures in the 24-well plates will be tested for biochemical activity, i.e. urea production, ammonia elimination and protein content. The cultured cells are washed twice using phosphate buffered saline (PBS, NBPI International) and then incubated with test medium consisting of HepaRG culture medium supplemented with 1.5 mM ^15NH4Cl (Sigma), 2.75 mM D-galactose (Sigma), 2 mM ornithine hydrochloride (Sigma) and 2 mM L-lactate (Sigma). Medium samples are taken after 1 hr from the culture wells, as a reference, and after 24 hours. At the end of the test period the cells are washed three times using PBS and stored at −20° C. for protein determination. From the changes in concentration at t=1 hr and 24 hr of urea and ammonia an activity per hour and per mg protein/well is calculated. Quality of the cell-loaded bioreactors, measured by hepatocyte function at the start of the treatment, will be compared with values of primary hepatocytes that have been tested extensively in vitro in the past.
AST and LDH: Both AST and LDH activities are analyzed spectrophotometrically using a P800 Roche Diagnostics analyzer.

[3] = system: HepaRG cells; experiment: ApoA1 production of HepaRG monolayer cultures (ELISA); format: cell-based, human
Method: as §2
ApoA1: Human ApoA1 concentrations are determined by ELISA using rabbit anti-human ApoA1 (1:500, Calbiochem, 178422), as first antibody, monoclonal mouse anti human ApoA1 (1:500, Calbiochem, 178472) as second antibody and polyclonal rabbit anti mouse IgG-HRP (1:2000, Dako Po 260) as third antibody.

[4] = system: HepaRG cells; experiment: Lactate elimination/consumption of HepaRG monolayer cultures; format: cell-based, human
Method: as §2, with “At the end of the test period the cells are washed three times using PBS and stored at −20° C. for protein determination.” left out
Lactate and glucose concentration: Both are analyzed using a P800 analyzer (Roche Diagnostics).

[5] = system: HepaRG cells; experiment: Galactose elimination of HepaRG monolayer cultures; format: cell-based, human; conditions: HepaRG monolayer +DMSO
Method: as §2

[6] = system: HepaRG cells; experiment: RT-PCR mRNA levels of hepatic genes in HepaRG monolayer cultures; format: cell-based, human
Method: The HepaRG cells cultured in the 6-well plates are lysed and the RNA is isolated using the RNeasy kit (Qiagen). Next, real-time reverse transcriptase-polymerase chain reactions (RT-PCR) are performed to quantify mRNA levels of hepatic genes as well as 18S ribosomal RNA levels by RT-PCR.
First-strand cDNA is generated using a combination of 40 pmol of gene-specific RT-primers (see Table 1) and 134 units of Superscript III (Invitrogen) and 1 μg RNA in a total volume of 25 μl at 50° C. for one hour followed by a 15 min incubation at 70° C. The resulting gene-specific RT reaction mixtures are column purified using Qiaquick PCR Purification Kit (Qiagen).
Real-time PCR is performed using 1 μl of cDNA and LightCycler FastStart DNA Master SYBR® Green 1 reagent (Roche). PCR primers are depicted in the Table 3. The thermal cycling profile of the touchdown PCR is as follows: 94° C. for 10 min, followed by 40 cycles of 94° C. for 1 s, primer annealing at 68° C. for 7 s with a 0.5° C./cycle decrease until 63° C., and extension for 40 s at 72° C. PCR specificity is verified by melting curve analysis and agarose gel electrophoresis. The mRNA quantification is carried out by using the LinRegPCR programme (Ramakers et al.^17). For each sample the mRNA starting level is normalised for the 18S rRNA starting level. To correct for variations between RT-PCR runs, the mRNA starting levels of liver specific genes of NKNT-3 cells are additionally standardized for average mRNA starting levels of two liver samples that are simultaneously subjected to RT-PCR.

[7] = system: HepaRG cells; experiment: Ammonia elimination of HepaRG monolayer cultures; format: cell-based, human
Method: For testing, the cells are seeded in 6-well and 24-well culture plates (Corning) in HepaRG media with different FBS batches or other differences in medium composition. After a 2 weeks proliferation phase, 2% of DMSO will be added to half of the cultures. After another 2 weeks of culturing, the confluence and morphology of the cultures will be assessed microscopically. Furthermore the +DMSO and −DMSO cell cultures in the 24-well plates will be tested for biochemical activity, i.e. urea production, ammonia elimination and protein content. […] From the changes in concentration at t=1 hr and 24 hr of urea and ammonia an activity per hour and per mg protein/well is calculated. Quality of the cell-loaded bioreactors, measured by hepatocyte function at the start of the treatment, will be compared with values of primary hepatocytes that have been tested extensively in vitro in the past.
Ammonia: Ammonia concentrations are determined by an enzymatic kinetic colorimetric assay using glutamate dehydrogenase and NADPH, using the Ammonia (rapid) kit (Megazyme, Ireland) according to the instructions of the manufacturer.

[8] = system: HepaRG cells; experiment: 15N urea enrichment (conversion of ammonia into urea) in HepaRG monolayer cultures; format: cell-based, human; conditions: HepaRG monolayer +DMSO, no CG
Method: as §2
^15N Urea: Single and Double labelled urea is measured in the test medium samples using mass-spectrometry.
as §1

[9] = system: HepaRG cells; experiment: Total protein content of HepaRG monolayer cultures; format: cell-based, human
Method: as §2
Total protein: Total protein was quantified by spectrometry using Coomassie blue (Bio-Rad).

[10] = target: T1, Arginase II (Arg II) (Homo sapiens, UniProt P78540); conditions: C3A cells; cited from earlier work
T1 construct: Arginase II (Arg II) mRNA and protein was expressed at high levels in C3A cells; endogenous in cells; host or cells: C3A cells (HepG2 sub-clone)
T1 sequence (P78540 23-354): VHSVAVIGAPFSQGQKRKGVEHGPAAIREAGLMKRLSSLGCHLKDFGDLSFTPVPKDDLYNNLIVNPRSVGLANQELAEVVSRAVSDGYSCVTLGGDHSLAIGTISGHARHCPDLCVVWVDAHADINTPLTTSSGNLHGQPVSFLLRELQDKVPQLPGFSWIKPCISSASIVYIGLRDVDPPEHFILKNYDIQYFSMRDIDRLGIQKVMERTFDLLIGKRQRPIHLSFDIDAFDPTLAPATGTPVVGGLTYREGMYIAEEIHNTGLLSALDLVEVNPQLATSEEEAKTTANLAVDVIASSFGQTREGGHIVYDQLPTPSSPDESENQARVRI

[11] = HepaRG monolayer +DMSO, per well
[12] = HepaRG monolayer, 2% DMSO last 2 weeks, no CG
[13] = HepaRG monolayer, DMSO treatment

SMILES: C[S+](C)[O-] [DMSO, dimethylsulfoxide]
- Urea production (absolute value) [1, 11]: 0.8 ± 0.5 nmol/h
- Urea production [1, 12]: 8.1 ± 6.8 nmol/h/mg protein and 6.0 ± 4.2 nmol/h/mg protein and 7.0 ± 7.0 nmol/h/mg protein
- AST leakage (protein normalized) [2]: 4.9 ± 2.4 mU/h/mg protein
- LDH leakage (protein normalized) [2]: 21.2 ± 9.4 mU/h/mg protein
- AST leakage (absolute value) ([2]; per well): 0.43 ± 0.08 mU/h
- LDH leakage (absolute value) ([2]; per well): 1.87 ± 0.43 mU/h
- ApoA1 synthesis ([3]; HepaRG monolayer +DMSO −CG): 1.2 ± 1.1 ug/h/mg protein
- ApoA1 production (absolute value) [3, 11]: 0.11 ± 0.11 µg/h
- ApoA1 production [3, 12]: 1.06 ± 0.95 μg/h/mg protein
- Lactate consumption ([4]; HepaRG monolayer +DMSO −CG): production
- Lactate elimination [4, 12]: production
- Galactose elimination (protein normalized) [5]: 58 ± 17 nmol/h/mg protein
- Galactose elimination (absolute value) ([5]; per well): 7.2 ± 1.8 nmol/h
- ArgII mRNA level ([6]; HepaRG monolayer +DMSO −CG): 718 ± 463 % of in vivo
- ALB mRNA level [6, 12]: 23 ± 4 % of in vivo and 22.7 ± 4.4 % of in vivo
- ARG1 mRNA level [6, 12]: 5 ± 4 % of in vivo and 4.6 ± 3.7 % of in vivo
- CPS mRNA level [6, 12]: 1.1 ± 0.4 % of in vivo
- CYP2B6 mRNA level [6, 12]: 61 ± 30 % of in vivo and 60.7 ± 30.0 % of in vivo
- CYP3A4 mRNA level [6, 12]: 69 ± 47 % of in vivo and 68.9 ± 47.2 % of in vivo
- GS mRNA level [6, 12]: 90 ± 29 % of in vivo and 90.1 ± 29.1 % of in vivo
- HNF4 mRNA level [6, 12]: 61 ± 21 % of in vivo and 60.8 ± 21.1 % of in vivo
- PXR mRNA level [6, 12]: 42 ± 19 % of in vivo and 41.7 ± 19.2 % of in vivo
- effect on CYP2B6 and 3A4 expression [6, 13]: increased
- effect on expression of other hepatic genes tested [6, 13]: either unaffected or decreased
- effect on gene expression of synthetic and metabolic genes, as CPS and albumin and galactose elimination ([6]; presence of DMSO): inhibited
- Ammonia elimination (absolute value) [7, 11]: 11.6 ± 4.3 nmol/h
- Ammonia elimination [7, 12]: 107 ± 41 nmol/h/mg protein and 110 ± 49 nmol/h/mg protein
- 15N urea enrichment [8]: 15.5 ± 8.4 % of total urea and 16.0 ± 8.4 % of total urea
- total protein/well [9, 12]: 109 ± 21 µg
- cells killed by DMSO treatment ([9]; HepaRG monolayer, deduced from total protein/well content and increased cell leakage): more than 50%
- effect on cell number ([9]; presence of DMSO, deduced from total protein content): drastically reduced

SMILES: N=C(NO)NCC[C@H](N)C(=O)O [N^ω-hydroxy-nor-L-arginine]
- effect on Arginase II [10]: inhibited
- effect on urea production [10]: prevented
